The results in this text go back to patent US20160143955A1, “METHOD FOR ISOLATING STROMAL VASCULAR FRACTION” (AGENCY FOR SCIENCE, TECHNOLOGY AND RESEARCH, priority 2013, published 2016).

The subject of this assay is adipose-derived stem cells recovered from fat tissue. Briefly: Yield of adipose-derived stem cells (ASCs) after seven days of growth, compared to the collagenase-based method. Conditions: mince 2.5 mins, incubate with agent at 37° C. for 1 hour; ASCs after seven days of growth vs collagenase-based method. Format: cell-based.

Some results are limits rather than exact numbers.

Method: Fat tissue (adipose tissue) obtained as lipoaspirate or resected via surgeries are to be obtained prior conducting any of the methods as described herein. To ensure optimum cell viability, immediate isolation of stromal vascular fraction on the day the sample is obtained is recommended. However, the methods as described herein may be performed optimally within 24 hours of sample being obtained. If the methods of the present disclosure cannot be performed immediately upon harvest of sample or within 72 hours of the sample being obtained, the sample was stored at 4° C. In case of enzymatic digestion, the sample is brought to room temperature before proceeding to the isolation procedure.
Upon obtaining the sample as lipoaspirate, to remove debris, the fat tissue was washed with equal amount of buffer (such as phosphate buffered saline (PBS) or Hank's balanced salt solution (HBSS)). For example, for 50 cc or 50 gram volume of lipoaspirate, 50 ml of buffer was used. Washed sample was allowed to settle for a couple of minutes and fluid from the bottom was aspirated to leave fat layer in the top. Washing steps were repeated two times. Collected fat layer was divided into the different methods as described below.
i) Add an equal volume of collagenase solution (ml per gram or cc of fat pads) into one sterile vial and warm to 37° C. Typically, collagenase solution is composed of 2.5 μg/ml collagenase type I, 1% (wt/vol) Bovine Serum Albumin (BSA), 50 μg/ml D-glucose and 200 nM adenosine in buffer;
i) Place washed fat tissue into appropriate tubes. Add equal volume of HBSS solution. Usually 10 ml of fat is used for each variable for replicate treatment/plating. Resected fat is favorable for consistency of cell yield, but manually harvested lipoaspirates are acceptable though additional optimization work described below is recommended;
When homogenizer is to be used, mildly homogenize fat tissue samples at the lowest level setting for 1 min. As would be apparent to the skilled person in the art, different homogenizers would give very different results. […] Optimization for different type of fat tissues must be conducted to obtain optimized parameters and lengths of homogenizing time;
vi) Centrifuge samples at 450 g (about 1800 RPM) for 5 min to pellet dissociated stromal vascular fraction cells. […] Discard the top layer of floating mature adipocytes;
xii) Re-suspend pellet in buffer (PBS or HBSS; 1 ml per 100 cc original tissue). Sample out 10 μl and count cell number in 1:1 mixture of trypan blue by hemocytometer or automated cell counter.
xv) Plate into appropriate dishes and incubate culture plates in 37° C., 5% CO2 incubator. […]
The isolated stromal vascular fraction cells in the methods described above were analyzed for their qualities and yield of adipose-derived stem cells. […]

On to `CC(C)NCC(O)c1ccc(O)c(O)c1` (stereo not shown) [Isoprenaline, isoprenaline], for which the “Yield (percentage yield of adipose-derived stem cells recovered)” value is given as over 70%.

Regarding “Sodium deoxycholate [Sodium deoxycholate (SOC)]”, the “Yield (percentage yield of adipose-derived stem cells recovered)” value is on record as 0%. In the case of `CNC[C@H](O)c1ccc(O)c(O)c1` [Epinephrine, epinephrine], the “Yield (percentage yield of adipose-derived stem cells recovered)” value is recorded as over 85%.

Regarding Triton-X, the “Yield (percentage yield of adipose-derived stem cells recovered)” value was determined as 0%.
